Laboratory results published in publication PMC6677754, “In silico design and optimization of selective membranolytic anticancer peptides” (Scientific Reports, 2019).
Peptide text beside a SMILES is read from it.

Tests used:
Assay in all cases: NCI-60 screening
Format in all cases: cell-based, human
786-0 = 786-0 (Renal); log GI50; 48 h, sulforhodamine B, 10^-4 to 10^-8 M
Procedure: (§1) NCI-60 screening procedure
(§2) The NCI-60 screening procedure was performed by the Developmental Therapeutics Program of the National Cancer Institute. The procedure was performed as previously described24 in 96-well microtiter plates. Each peptide was tested in a 5-concentration assay, starting at 10^-4 M and diluting 10-fold to the lowest 10^-8 M concentration. The peptides were incubated for 48 h and the cell concentration was assayed by using the sulforhodamine B assay25 and optical density measurements. The growth inhibition (GI50) value24, measures the growth inhibitory power of the drug agent. The GI50 value is the concentration of the test drug for which the condition in Eq. S1 is met, where T is the optical density of the test well after a 48-h exposure to the peptide, T0 the optical density before applying the peptide drug and C the control optical density of a well where no peptide was applied.

CAKI-1 = CAKI-1 (Renal); log GI50; 48 h, sulforhodamine B, 10^-4 to 10^-8 M
Procedure: as §1, §2

COLO 205 = COLO 205 (Colon); log GI50; 48 h, sulforhodamine B, 10^-4 to 10^-8 M
Procedure: as §1, §2

DU-145 = DU-145 (Prostate); log GI50; 48 h, sulforhodamine B, 10^-4 to 10^-8 M
Procedure: as §1, §2

HCT-116 = HCT-116 (Colon); log GI50; 48 h, sulforhodamine B, 10^-4 to 10^-8 M
Procedure: as §1, §2

HCT-15 = HCT-15 (Colon); log GI50; 48 h, sulforhodamine B, 10^-4 to 10^-8 M
Procedure: as §1, §2

HL-60 = HL-60 (Leukemia); log GI50; 48 h, sulforhodamine B, 10^-4 to 10^-8 M
Procedure: as §1, §2

HS-578T = HS-578T (Breast); log GI50; 48 h, sulforhodamine B, 10^-4 to 10^-8 M
Procedure: as §1, §2

HT29 = HT29 (Colon); log GI50; 48 h, sulforhodamine B, 10^-4 to 10^-8 M
Procedure: as §1, §2

MDA-MB-231/ATCC = MDA-MB-231/ATCC (Breast); log GI50; 48 h, sulforhodamine B, 10^-4 to 10^-8 M
Procedure: as §1, §2

MOLT-4 = MOLT-4 (Leukemia); log GI50; 48 h, sulforhodamine B, 10^-4 to 10^-8 M
Procedure: as §1, §2

NCI-H322M = NCI-H322M (Lung); log GI50; 48 h, sulforhodamine B, 10^-4 to 10^-8 M
Procedure: as §1, §2

NCI-H460 = NCI-H460 (Lung); log GI50; 48 h, sulforhodamine B, 10^-4 to 10^-8 M
Procedure: as §1, §2

NCI-H522 = NCI-H522 (Lung); log GI50; 48 h, sulforhodamine B, 10^-4 to 10^-8 M
Procedure: as §1, §2

OVCAR-3 = OVCAR-3 (Ovarian); log GI50; 48 h, sulforhodamine B, 10^-4 to 10^-8 M
Procedure: as §1, §2

OVCAR-8 = OVCAR-8 (Ovarian); log GI50; 48 h, sulforhodamine B, 10^-4 to 10^-8 M
Procedure: as §1, §2

PC-3 = PC-3 (Prostate); log GI50; 48 h, sulforhodamine B, 10^-4 to 10^-8 M
Procedure: as §1, §2

RXF-393 = RXF-393 (Renal); log GI50; 48 h, sulforhodamine B, 10^-4 to 10^-8 M
Procedure: as §1, §2

SF-295 = SF-295 (CNS); log GI50; 48 h, sulforhodamine B, 10^-4 to 10^-8 M
Procedure: as §1, §2

SF-539 = SF-539 (CNS); log GI50; 48 h, sulforhodamine B, 10^-4 to 10^-8 M
Procedure: as §1, §2

SK-MEL-28 = SK-MEL-28 (Melanoma); log GI50; 48 h, sulforhodamine B, 10^-4 to 10^-8 M
Procedure: as §1, §2

SK-MEL-5 = SK-MEL-5 (Melanoma); log GI50; 48 h, sulforhodamine B, 10^-4 to 10^-8 M
Procedure: as §1, §2

SK-OV-3 = SK-OV-3 (Ovarian); log GI50; 48 h, sulforhodamine B, 10^-4 to 10^-8 M
Procedure: as §1, §2

SNB-75 = SNB-75 (CNS); log GI50; 48 h, sulforhodamine B, 10^-4 to 10^-8 M
Procedure: as §1, §2

SW-620 = SW-620 (Colon); log GI50; 48 h, sulforhodamine B, 10^-4 to 10^-8 M
Procedure: as §1, §2

U251 = U251 (CNS); log GI50; 48 h, sulforhodamine B, 10^-4 to 10^-8 M
Procedure: as §1, §2

UO-31 = UO-31 (Renal); log GI50; 48 h, sulforhodamine B, 10^-4 to 10^-8 M
Procedure: as §1, §2

## CC[C@H](C)[C@H](NC(=O)[C@H](CCCNC(=N)N)NC(=O)[C@H](Cc1c[nH]c2ccccc12)NC(=O)[C@@H](NC(=O)[C@H](CCCCN)NC(=O)[C@H](CCCCN)NC(=O)[C@@H](NC(=O)[C@@H](NC(=O)[C@@H](NC(=O)[C@H](CCCCN)NC(=O)[C@H](Cc1ccccc1)NC(=O)[C@H](CCCCN)NC(=O)[C@H](CCCCN)NC(=O)[C@H](Cc1ccccc1)NC(=O)[C@@H](NC(=O)[C@@H](N)CCCCN)[C@@H](C)CC)[C@@H](C)O)[C@@H](C)CC)[C@@H](C)CC)C(C)C)C(=O)N[C@@H](Cc1ccccc1)C(=O)NCC(=O)N[C@@H](CCCNC(=N)N)C(=O)N[C@@H](Cc1ccccc1)C(N)=O [AmphiArc2] (H-KIFKKFKTIIKKVWRIFGRF-NH2)
786-0
  Log GI (M): -5.53 M
CAKI-1
  Log GI (M): -5.71 M
COLO 205
  Log GI (M): -5.58 M
DU-145
  Log GI (M): -5.77 M
HCT-116
  Log GI (M): -5.49 M
HCT-15
  Log GI (M): -5.58 M
HL-60
  Log GI (M): -5.28 M
HS-578T
  Log GI (M): -5.65 M
HT29
  Log GI (M): -5.53 M
MDA-MB-231/ATCC
  Log GI (M): -5.72 M
MOLT-4
  Log GI (M): -5.51 M
NCI-H322M
  Log GI (M): -5.73 M
NCI-H460
  Log GI (M): -5.62 M
NCI-H522
  Log GI (M): -5.63 M
OVCAR-3
  Log GI (M): -5.67 M
OVCAR-8
  Log GI (M): -5.48 M
PC-3
  Log GI (M): -5.66 M
RXF-393
  Log GI (M): -5.68 M
SF-295
  Log GI (M): -5.69 M
SF-539
  Log GI (M): -5.72 M
SK-MEL-28
  Log GI (M): -5.66 M
SK-MEL-5
  Log GI (M): -5.64 M
SK-OV-3
  Log GI (M): -5.50 M
SNB-75
  Log GI (M): -5.60 M
SW-620
  Log GI (M): -5.59 M
U251
  Log GI (M): -5.52 M
UO-31
  Log GI (M): -5.74 M

## CC[C@H](C)[C@H](NC(=O)[C@H](CCCCN)NC(=O)[C@H](CCCCN)NC(=O)[C@@H](NC(=O)[C@@H](NC(=O)[C@@H](N)Cc1c[nH]cn1)[C@@H](C)CC)[C@@H](C)CC)C(=O)N[C@@H](CCCNC(=N)N)C(=O)N[C@H](C(=O)N[C@@H](Cc1c[nH]c2ccccc12)C(=O)N[C@@H](Cc1ccc(O)cc1)C(=O)N[C@@H](CCCNC(=N)N)C(=O)N[C@@H](CCCCN)C(=O)N[C@@H](C)C(=O)N[C@@H](Cc1c[nH]c2ccccc12)C(=O)N[C@@H](Cc1c[nH]cn1)C(=O)N[C@H](C(=O)N[C@@H](CC(C)C)C(=O)NCC(=O)N[C@@H](CCCCN)C(=O)N[C@H](C(N)=O)C(C)C)C(C)C)[C@@H](C)O [Off2] (H-HIIKKIRTWYRKAWHVLGKV-NH2)
786-0
  Log GI (M): -5.47 M
CAKI-1
  Log GI (M): -5.48 M
COLO 205
  Log GI (M): -5.68 M
DU-145
  Log GI (M): -5.37 M
HCT-116
  Log GI (M): -4.76 M
HCT-15
  Log GI (M): -5.37 M
HL-60
  Log GI (M): -5.37 M
HS-578T
  Log GI (M): -5.45 M
HT29
  Log GI (M): -4.83 M
MDA-MB-231/ATCC
  Log GI (M): -5.19 M
MOLT-4
  Log GI (M): -4.85 M
NCI-H322M
  Log GI (M): -5.30 M
NCI-H460
  Log GI (M): -5.48 M
NCI-H522
  Log GI (M): -4.96 M
OVCAR-3
  Log GI (M): -4.98 M
OVCAR-8
  Log GI (M): -5.32 M
PC-3
  Log GI (M): -5.55 M
RXF-393
  Log GI (M): -5.37 M
SF-295
  Log GI (M): -5.32 M
SF-539
  Log GI (M): -5.67 M
SK-MEL-28
  Log GI (M): -5.58 M
SK-MEL-5
  Log GI (M): -5.40 M
SK-OV-3
  Log GI (M): -5.20 M
SNB-75
  Log GI (M): -4.92 M
SW-620
  Log GI (M): -5.02 M
U251
  Log GI (M): -5.14 M
UO-31
  Log GI (M): -4.73 M
